Key:
[1] = system: male and female rats; test: Acute toxicity study; type: in vivo, rat
[2] = system: OEA levels (biomarker of FAAH activity); test: OEA levels in liver and plasma after oral URB937; type: in vivo; conditions: rat, oral 0.3, 1, 3, 10 mg/kg, one hour
[3] = system: male and female rats; test: Subchronic toxicity study
[4] = system: human potassium hERG channel; conditions: ref unpublished results; cited from earlier work
[5] = ref unpublished results; cited from earlier work
[6] = Pharmacokinetic study of URB937 in rats; type: in vivo, rat
[7] = male and female rats, single oral 100, 300, 1000 mg/kg
[8] = male rats, single oral 300 mg/kg, 7 days
[9] = male and female rats, 100, 300, 1000 mg/kg oral for 14 days
[10] = male Sprague Dawley rats, 3 mg/kg oral

NC(=O)c1cccc(-c2cc(OC(=O)NC3CCCCC3)ccc2O)c1 [URB937]
food intake ([1]; female rats, single oral 100 mg/kg, 7 days): small, but significant increase | water consumption ([1]; female rats, single oral 1000 mg/kg, 7 days): larger increment | tolerability ([1]; male and female rats, acute oral administration of supramaximal doses): well tolerated | hematology and blood chemistry screens [1, 7]: no significant alterations | macroscopic examination at necropsy and microscopic histopathology [1, 7]: did not reveal any abnormality | mortality [1, 7]: None of the animals died | cumulative food intake [1, 8]: reduced | cumulative water intake [1, 8]: reduced | OEA levels in liver [2]: dose-dependent elevation | OEA levels in plasma [2]: dose-dependent elevation | food intake ([3]; female rats, 300 mg/kg oral once daily for 14 days): small increase | macroscopic examination at necropsy and microscopic histopathology [3, 9]: did not reveal any abnormality | mortality [3, 9]: None of the animals died | tolerability ([3]; male and female rats, subchronic (2 weeks) oral administration of supramaximal doses): well tolerated | plasma glucose levels ([3]; male rats only, 14-day oral administration): increase | inhibition of the human potassium hERG channel [4]: does not inhibit | genotoxic effects in the Ames' test [5]: does not exert genotoxic effects | AUCplasma, area under the curve [6, 10]: 656.2 ng·h/mL | Tmax, time at which Cmax is reached [6, 10]: 1 h | Vd, distribution volume [6, 10]: 17.9 L | F, oral bioavailability ([6]; male Sprague Dawley rats, 3 mg/kg oral vs intravenous): 36% | Cl, clearance ([6]; male Sprague Dawley rats, 3 mg/kg oral, noncompartmental model): 76.64 mL/min | Cmax, maximal plasma concentration ([6]; male Sprague Dawley rats, 3 mg/kg oral, plasma): 159.47 ng/mL | t1/2, terminal half-life ([6]; male Sprague Dawley rats, 3 mg/kg oral, 3 mg/kg): 2.702 h | t1/2 (cleared from circulation) ([6]; male rats, 3 mg/kg oral): approximately 3 h | brain levels of URB937 ([6]; male rats, 3 mg/kg oral, below limit of detection (LOD 50 pg/ml, LOQ 300 pg/ml)): < 0.05 ng/mL | plasma levels of URB937 in dose-escalation study ([6]; rats, oral 0.3 to 100 mg/kg, 1 h after treatment): increased linearly in the dose range of 0.3 to 10 mg/kg and reached saturation between 30 mg/kg and 100 mg/kg

— publication PMC6842052 (The Journal of pharmacy and pharmacology, 2019)
